Reference: US4376765A, “Medicaments, their preparation and compositions containing same” (Institut International de Pathologie Cellulaire et …, priority 1980, dated 1983)

Legend:
[1] = system: lysosomal peptidase / purified lysosomal enzymes; experiment: hydrolysis under conditions of lysosomal digestion (release of free drug); type: in vitro ADME; details: for daunorubicine regenerated by the action of lysosomal peptidase: pH 6.0, aminoacid linked to daunorubicine
Source text: According to the invention, the arm is of peptidic nature and contains preferably 3 or 4 aminoacids. It is particularly important that the aminoacid being bound to the free amino function of the drug through its carboxylic function, has an asymmetric carbon atom and has the L-configuration because the peptidases or the lysosomal hydrolases only cut the peptidic bonds in the alpha position with respect to an asymmetric carbon. The aminoacid composing the peptidic spacer arm could be selected among the following L-aminoacids: α-aminobutyric acid, γ-aminobutyric acid, ε-aminocaproic acid, arginine, asparagine, aspartic acid, cysteic acid, cysteine, glutamine, glutamic acid, glycine, histidine, 4-hydroxyproline, […]. Of particular interest to play this function is L-leucine. […] In addition, a much higher rate of release of the free drug is obtained when the number of aminoacids making up the peptidic arm increases and may be as high as 78% when the intermediate peptide is made of a sequence of 4 aminoacids. Thus according to the invention, the intermediate "spacer arm" preferably is represented by the sequence

stability in the serum = type: in vitro ADME
Source text: According to the invention, the arm is of peptidic nature and contains preferably 3 or 4 aminoacids. It is particularly important that the aminoacid being bound to the free amino function of the drug through its carboxylic function, has an asymmetric carbon atom and has the L-configuration because the peptidases or the lysosomal hydrolases only cut the peptidic bonds in the alpha position with respect to an asymmetric carbon. The aminoacid composing the peptidic spacer arm could be selected among the following L-aminoacids: α-aminobutyric acid, γ-aminobutyric acid, ε-aminocaproic acid, arginine, asparagine, aspartic acid, cysteic acid, cysteine, glutamine, glutamic acid, glycine, histidine, 4-hydroxyproline, […]. Of particular interest to play this function is L-leucine.

L 1210 leukemia = experiment: mice inoculated intraperitoneally with L 1210 leukemia, treated by intraperitoneal route; type: in vivo; details: for activity against L 1210 leukemia in mice compared with daunorubicine or L-leucyl-daunorubicine: i.p. inoculation, i.p. treatment; for activity against L 1210 leukemia in mice compared with daunorubicine or L-leucyl-daunorubicine / toxicity compared with daunorubicine or L-leucyl-daunorubicine: equal doses expressed as daunorubicine; for toxicity compared with daunorubicine or L-leucyl-daunorubicine: mice, i.p.
L 1210 leukemia cells = experiment: in vitro growth inhibition of L 1210 leukemia cells; type: cell-based; details: 72 hours of culture; concentration near 10 μg/cm^3
Method: Thus the products in which the drug is daunorubicine inhibit in vitro the growth of cancerous cells such as cells of L 1210 leukemia in an appropriate medium. For example, after 72 hours of culture, BSA-succinyl-L-Ala-L-Leu-L-Ala-L-Leu-Daunorubicine at a concentration near 10 μg/cm^3, causes 90% of inhibition of the growth of L 1210 leukemia cells.

[2] = 5 mg/kg expressed as daunorubicine, mice with L 1210 leukemia

COc1cccc2c1C(=O)c1c(O)c3c(c(O)c1C2=O)C[C@@](O)(C(=O)CO)C[C@@H]3O[C@H]1C[C@H](NC(=O)[C@@H](N)CC(C)C)[C@H](O)[C@H](C)O1 [N-L-leucyl-doxorubicine]
regeneration of the free drug when submitted to lysosomal digestion [1]: regenerate rapidly the free drug | stability in the serum (stability in the serum): stable in the serum

N[C@@H](Cc1ccc(O)cc1)C(=O)O [L-tyrosine]
daunorubicine regenerated by the action of lysosomal peptidase [1]: 70%

COc1cccc2c1C(=O)c1c(O)c3c(c(O)c1C2=O)C[C@@](O)(C(C)=O)C[C@@H]3O[C@H]1C[C@H](N)[C@H](O)[C@H](C)O1 [daunorubicine, reference compound]
increase of life span (ILS) (L 1210 leukemia; [2]): about 7% | toxicity at the dose (L 1210 leukemia; 5 mg/kg, mice with L 1210 leukemia): already toxic at that dose

fetuine-succinyl-L-Ala-L-Leu-L-Ala-L-Leu-daunorubicine: succinylated fetuine coupled with L-alanyl-L-leucyl-L-alanyl-L-leucyl-daunorubicine
increase of life span (ILS) (L 1210 leukemia; [2]): ~194% | surviving mice after 30 days of observation (L 1210 leukemia; 5 mg/kg expressed as daunorubicine, of 10 mice): 8 | activity against L 1210 leukemia in mice compared with daunorubicine or L-leucyl-daunorubicine (L 1210 leukemia): markedly better activity than that of daunorubicine or L-leucyl-daunorubicine | toxicity compared with daunorubicine or L-leucyl-daunorubicine (L 1210 leukemia): less toxicity

COc1cc(NC(C)CCCNC(=O)[C@@H](N)CC(C)C)c2ncccc2c1 (stereo partly drawn) [N-L-leucyl-primaquine]
regeneration of the free drug when submitted to lysosomal digestion [1]: regenerate rapidly the free drug | stability in the serum (stability in the serum): stable in the serum

BSA-succinyl-L-Ala-L-Leu-L-Ala-L-Leu-Daunorubicine: succinyl-alanyl-leucyl-alanyl-leucyl-daunorubicine coupled with bovine serum albumin
inhibition of the growth of L 1210 leukemia cells (L 1210 leukemia cells): 90% | activity against L 1210 leukemia in mice compared with daunorubicine or L-leucyl-daunorubicine (L 1210 leukemia): markedly better activity than that of daunorubicine or L-leucyl-daunorubicine | toxicity compared with daunorubicine or L-leucyl-daunorubicine (L 1210 leukemia): less toxicity

COc1cccc2c1C(=O)c1c(O)c3c(c(O)c1C2=O)C[C@@](O)(C(C)=O)C[C@@H]3O[C@H]1C[C@H](NC(=O)[C@@H](N)CC(C)C)[C@H](O)[C@H](C)O1 [N-L-leucyl-daunorubicine]
regeneration of the free drug when submitted to lysosomal digestion [1]: regenerate rapidly the free drug | free daunorubicine released ([1]; two hours hydrolysis at pH 4.5, lysosomal digestion): 65% | free daunorubicine released ([1]; two hours hydrolysis at pH 6.0, lysosomal digestion): 90% | stability in the serum (stability in the serum): stable in the serum

CC[C@H](C)[C@H](N)C(=O)O [L-isoleucine]
daunorubicine regenerated by the action of lysosomal peptidase [1]: 60%
